Reference: ChEMBL document CHEMBL1201862, “PubChem BioAssay data set” (2004)
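Values below derive from 48-hour exposures of cells grown in 96-well plates, with endpoints linearly interpolated between the two concentrations bracketing the appropriate inhibition level. Here, GI50 denotes the concentration required for 50% inhibition of growth.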 Activity calls are given as the source filed them. Rule as the data show it: active = GI50 up to about 1.1 µM and inactive = higher.

What was measured:
Experiment in all cases: NCI tumour cell line growth inhibition, 48 h
SF-539 = system: SF-539
T47D = system: T47D
MDA-MB-231 = system: MDA-MB-231
OVCAR-3 = system: OVCAR-3
SK-MEL-28 = system: SK-MEL-28
M14 = system: M14
SW-620 = system: SW-620
NCI-H226 = system: NCI-H226
UACC-257 = system: UACC-257
MOLT-4 = system: MOLT-4
U-251 = system: U-251
Hs-578T = system: Hs-578T
SF-295 = system: SF-295
RPMI-8226 = system: RPMI-8226
SN12C = system: SN12C
OVCAR-4 = system: OVCAR-4
A498 = system: A498
IGROV-1 = system: IGROV-1
NCI/ADR-RES = system: NCI/ADR-RES
NCI-H522 = system: NCI-H522

Row | Structure (SMILES) | GI50 (SF-539) | GI50 (T47D) | GI50 (MDA-MB-231) | GI50 (OVCAR-3) | GI50 (SK-MEL-28) | GI50 (M14) | GI50 (SW-620) | GI50 (NCI-H226) | GI50 (UACC-257) | GI50 (MOLT-4) | GI50 (U-251) | GI50 (Hs-578T) | GI50 (SF-295) | GI50 (RPMI-8226) | GI50 (SN12C) | GI50 (OVCAR-4) | GI50 (A498) | GI50 (IGROV-1) | GI50 (NCI/ADR-RES) | GI50 (NCI-H522)
1 | CC(=O)c1cnc2oc3ccc(O)cc3c2c1-c1ccccc1 | 15 µM (inactive) | 10.8 µM (inactive) | 25.2 µM (inactive) | 17.3 µM (inactive) | 17.5 µM (inactive) | > 100 µM (inactive) | > 100 µM (inactive) | 35.6 µM (inactive) | 65.2 µM (inactive) | 19.2 µM (inactive) | 52.4 µM (inactive) | 14.2 µM (inactive) | 30 µM (inactive) | 18.8 µM (inactive) | 44.4 µM (inactive) | 15 µM (inactive) | 17.5 µM (inactive) | – | – | –
2 | OC12COc3ccccc3C1Oc1ccccc1C2 (stereo not drawn) | > 100 µM (inactive) | > 100 µM (inactive) | > 100 µM (inactive) | > 100 µM (inactive) | – | > 100 µM (inactive) | > 100 µM (inactive) | > 100 µM (inactive) | > 100 µM (inactive) | > 100 µM (inactive) | > 100 µM (inactive) | – | > 100 µM (inactive) | > 100 µM (inactive) | > 100 µM (inactive) | > 100 µM (inactive) | > 100 µM (inactive) | > 100 µM (inactive) | > 100 µM (inactive) | > 100 µM (inactive)
3 | CSC1=NS(=O)(=O)c2cc(C(=O)NN(C)C(=O)c3cc4c(cc3Cl)SC(SC)=NS4(=O)=O)c(Cl)cc2S1 | > 10 µM (inactive) | > 10 µM (inactive) | – | > 10 µM (inactive) | > 10 µM (inactive) | > 10 µM (inactive) | > 10 µM (inactive) | > 10 µM (inactive) | > 10 µM (inactive) | > 10 µM (inactive) | > 10 µM (inactive) | > 10 µM (inactive) | > 10 µM (inactive) | > 10 µM (inactive) | > 10 µM (inactive) | > 10 µM (inactive) | > 10 µM (inactive) | > 10 µM (inactive) | > 10 µM (inactive) | > 10 µM (inactive)
4 | O=C1Nc2c(Cl)cc(Cl)cc2/C1=N/NC(=O)c1ccncc1 | 21.6 µM (inactive) | – | 17.3 µM (inactive) | 15.5 µM (inactive) | 22.6 µM (inactive) | 46.2 µM (inactive) | 28.4 µM (inactive) | 47.2 µM (inactive) | 19.6 µM (inactive) | 25.2 µM (inactive) | 18.1 µM (inactive) | 40.6 µM (inactive) | 38.5 µM (inactive) | – | 26.2 µM (inactive) | 22.2 µM (inactive) | > 100 µM (inactive) | 22.9 µM (inactive) | 23.1 µM (inactive) | –
5 | C=CCN1C(=O)CC(=O)N(NC2=NNC3(C(=O)N2)c2ccccc2-c2ccccc23)C1=S | 59.4 µM (inactive) | – | > 100 µM (inactive) | 28.4 µM (inactive) | 49.9 µM (inactive) | > 100 µM (inactive) | 38.5 µM (inactive) | 13.8 µM (inactive) | 27.5 µM (inactive) | – | 38 µM (inactive) | 13.6 µM (inactive) | 37 µM (inactive) | – | 37.2 µM (inactive) | 29.4 µM (inactive) | 34.8 µM (inactive) | 38.9 µM (inactive) | 25.4 µM (inactive) | 32.6 µM (inactive)
6 | Cc1cc(C)c2c(c1)N[S@@](=O)S2 | 26.1 µM (inactive) | – | – | 18.3 µM (inactive) | 28 µM (inactive) | 17 µM (inactive) | 3.74 µM (inactive) | 19.2 µM (inactive) | 16.6 µM (inactive) | 25.8 µM (inactive) | 16.8 µM (inactive) | – | 39.7 µM (inactive) | 34.7 µM (inactive) | 19.4 µM (inactive) | 23.1 µM (inactive) | > 100 µM (inactive) | 19.4 µM (inactive) | – | 17.4 µM (inactive)
7 | CCOC(=O)c1c(N)n(-c2ccccc2)c(=S)n(-c2ccccc2)c1=O | – | > 100 µM (inactive) | > 100 µM (inactive) | > 100 µM (inactive) | > 100 µM (inactive) | > 100 µM (inactive) | > 100 µM (inactive) | > 100 µM (inactive) | > 100 µM (inactive) | > 100 µM (inactive) | > 100 µM (inactive) | > 100 µM (inactive) | > 100 µM (inactive) | > 100 µM (inactive) | > 100 µM (inactive) | > 100 µM (inactive) | – | > 100 µM (inactive) | – | > 100 µM (inactive)
8 | CC1=C(c2ccccc2)NC(=S)C(C)C(c2ccccc2)=N1 (stereo not drawn) | 16.3 µM (inactive) | 15.8 µM (inactive) | > 100 µM (inactive) | – | 38.9 µM (inactive) | – | 44.1 µM (inactive) | 52.4 µM (inactive) | 28.8 µM (inactive) | 15.2 µM (inactive) | 55.6 µM (inactive) | – | 29.1 µM (inactive) | 15.4 µM (inactive) | 56.2 µM (inactive) | 17.2 µM (inactive) | 27.2 µM (inactive) | 36.9 µM (inactive) | 22.8 µM (inactive) | –
9 | NCCCCC(NC(=O)C(N)Cc1ccc(O)cn1)C(=O)O (stereo not drawn) | > 100 µM (inactive) | – | > 100 µM (inactive) | > 100 µM (inactive) | > 100 µM (inactive) | – | > 100 µM (inactive) | > 100 µM (inactive) | > 100 µM (inactive) | > 100 µM (inactive) | > 100 µM (inactive) | > 100 µM (inactive) | > 100 µM (inactive) | > 100 µM (inactive) | > 100 µM (inactive) | > 100 µM (inactive) | > 100 µM (inactive) | > 100 µM (inactive) | > 100 µM (inactive) | > 100 µM (inactive)
10 | COc1ccc(CCN(C)C(=O)CC(C#N)(c2ccccc2)c2ccc(OC)c(OC)c2)cc1OC (stereo not drawn) | > 100 µM (inactive) | > 100 µM (inactive) | – | > 100 µM (inactive) | > 100 µM (inactive) | > 100 µM (inactive) | > 100 µM (inactive) | > 100 µM (inactive) | > 100 µM (inactive) | > 45.9 µM (inactive) | > 100 µM (inactive) | > 100 µM (inactive) | > 100 µM (inactive) | > 46.9 µM (inactive) | > 100 µM (inactive) | > 100 µM (inactive) | > 100 µM (inactive) | > 100 µM (inactive) | > 100 µM (inactive) | > 94.6 µM (inactive)
11 | COC(=O)Cc1nc2ccccc2o1 | 72.3 µM (inactive) | – | – | 69 µM (inactive) | > 100 µM (inactive) | 51.6 µM (inactive) | 95.1 µM (inactive) | > 100 µM (inactive) | 47 µM (inactive) | 67.9 µM (inactive) | 83.8 µM (inactive) | – | 41.1 µM (inactive) | 17.8 µM (inactive) | > 100 µM (inactive) | > 100 µM (inactive) | > 100 µM (inactive) | > 100 µM (inactive) | – | 40.1 µM (inactive)
12 | O=S1OC(c2ccccc2)(c2ccccc2)C(c2ccccc2)(c2ccccc2)O1 | > 100 µM (inactive) | – | – | > 100 µM (inactive) | > 100 µM (inactive) | > 100 µM (inactive) | > 100 µM (inactive) | > 100 µM (inactive) | 46.6 µM (inactive) | 5.26 µM (inactive) | 25.1 µM (inactive) | – | 14.1 µM (inactive) | 5.15 µM (inactive) | > 100 µM (inactive) | 45.2 µM (inactive) | > 100 µM (inactive) | > 100 µM (inactive) | – | > 50.1 µM (inactive)
13 | O=C1CCCCC(=O)OC2(CCCCC2=O)CC1 (stereo not drawn) | > 100 µM (inactive) | > 100 µM (inactive) | > 100 µM (inactive) | > 100 µM (inactive) | > 100 µM (inactive) | > 100 µM (inactive) | > 100 µM (inactive) | > 100 µM (inactive) | > 100 µM (inactive) | > 100 µM (inactive) | > 100 µM (inactive) | – | > 100 µM (inactive) | > 100 µM (inactive) | > 100 µM (inactive) | > 100 µM (inactive) | > 100 µM (inactive) | > 100 µM (inactive) | > 100 µM (inactive) | > 100 µM (inactive)
14 | CC(=O)Nc1cc(Nc2cc(O)nc(O)n2)ccc1C | > 100 µM (inactive) | – | > 100 µM (inactive) | > 100 µM (inactive) | > 100 µM (inactive) | > 100 µM (inactive) | > 100 µM (inactive) | > 100 µM (inactive) | > 100 µM (inactive) | – | > 100 µM (inactive) | > 100 µM (inactive) | > 100 µM (inactive) | > 100 µM (inactive) | > 100 µM (inactive) | > 100 µM (inactive) | > 100 µM (inactive) | > 100 µM (inactive) | > 100 µM (inactive) | –
15 | O=C(CC(=O)c1ccccc1)c1ccccc1.O=C(CC(=O)c1ccccc1)c1ccccc1.O=C(CC(=O)c1ccccc1)c1ccccc1.[SiH4] | 8.67 µM (inactive) | – | – | 2.42 µM (inactive) | 7.76 µM (inactive) | 6.24 µM (inactive) | 4.15 µM (inactive) | 8.87 µM (inactive) | 9.42 µM (inactive) | 2.59 µM (inactive) | 2.86 µM (inactive) | – | 4.65 µM (inactive) | 4.03 µM (inactive) | 3.95 µM (inactive) | 4.63 µM (inactive) | 10.6 µM (inactive) | 5.4 µM (inactive) | – | 2.26 µM (inactive)
16 | CCN(CC)CCC(=O)/C=C/c1ccc(Cl)c(Cl)c1 | – | 2.33 µM (inactive) | 3.48 µM (inactive) | 8.61 µM (inactive) | – | 3.52 µM (inactive) | 2.55 µM (inactive) | > 10 µM (inactive) | > 10 µM (inactive) | 3.01 µM (inactive) | 4.76 µM (inactive) | – | > 10 µM (inactive) | 0.127 µM (active) | 1.86 µM (inactive) | 9.35 µM (inactive) | – | – | 1.99 µM (inactive) | 1.58 µM (inactive)
